System: release of ApoB-100-associated lipoproteins from HepG2 cells
Assay: Inhibition of the release of ApoB-100-associated lipoproteins from cultivated liver cells (HepG2), immunoassay for human LDL
Type: cell-based
Details: substance concentration at which light absorption (450 nm) is inhibited by 50% vs solvent control
Procedure: 1. Inhibition of the release of ApoB-100-associated lipopnoteins
The test for detecting the inhibition of the release of ApoB-100-associatedlipoproteins-from liver cells was carried out in vitro using cultivated liver cells, preferably using cells of the human line HepG2. These cells are grown under standard conditions in medium for the culture of eukaryotic cells, preferably in RPMI 1640 with 10% foetal calf serum. HepG2 cells synthesize and secrete into the culture supernatant ApoB-100-associated lipoprotein particles which in principle are constructed similarly to the VLDL and LDL particles which are to be found in the plasma.
These particles can be detected using an immunoassay for human LDL. This immunoassay is carried out using antibodies which have been induced against human LDL in the rabbit under standard conditions. The anti-LDL antibodies (rabbit anti-LDL Ab) were purified by affinity chromatography on an immunosorbent using human LDL. These purified rabbit anti-LDL Ab are adsorbed on the surface of plastic. Expediently, this adsorption takes place on the plastic surface of microtiter plates having 96 wells, preferably on MaxiSorp plates. If ApoB-100-associated particles are present in the supernatant of Hep-G2 cells, these can bind to the insolubilized rabbit anti-LDL Ab and an immune complex is formed which is bound to the plastic surface. Non-bound proteins are removed by washing. The immune complex on the plastic surface is detected using monoclonal antibodies which have been induced against human LDL and purified according to standard conditions. These antibodies were conjugated with the enzyme peroxidase. Peroxidase converts the colourless substrate TMB into a coloured product in the presence of H2 O2. After acidification of the reaction mixture with H2 SO4, the specific light absorption at 450 nm is determined, which is a measure of the amount of ApoB-100-associated particles which have been secreted into the culture supernatant by the HepG2 cells.
The IC50 value indicates at which substance concentration the light absorption is inhibited by 50% in comparison with the control (solvent control without substance).

Compound	IC50 [nM]
O=C(N[C@@H](CO)c1ccccc1)[C@H](c1ccc(OCc2ccc3ccccc3n2)cn1)C1CCCCCC1 [Example 13]	235
O=C(N[C@@H](CO)c1ccccc1)C(c1ccc(OCc2ccc3ccccc3n2)cn1)C1CCCC1 (stereo partly shown) [Example 5]	622
O=C(N[C@@H](CO)c1ccccc1)C(c1ccc(OCc2ccc3ccccc3n2)cn1)C1CCCCCC1 (stereo partly shown) [Example 6]	255
O=C(NCc1ccccc1)C(c1ccc(OCc2ccccc2Cl)cn1)C1CCCCCC1 (stereo not shown) [Example 4]	11
O=C(NCC1CCCCC1)C(c1ccc2cc(OCc3ccc4ccccc4n3)ccc2c1)C1CCCC1 (stereo not shown) [Example 9]	> 2000
O=C(N[C@@H](CO)c1ccccc1)[C@@H](c1ccc(OCc2ccc3ccccc3n2)cn1)C1CCCCCC1 [Example 14]	235
O=C(NCc1ccccc1)C(c1ccccc1)N1CCC(OCc2ccc3ccccc3n2)CC1 (stereo not shown) [Example 2]	> 2000
O=C(N[C@@H](CO)c1ccccc1)C(c1ccc2cc(OCc3ccc4ccccc4n3)ccc2c1)C1CCCC1 (stereo partly shown) [Example 8]	1880
O=C(N[C@H](CO)c1ccccc1)C(c1ccc2cc(OCc3ccc4ccccc4n3)ccc2c1)C1CCCC1 (stereo partly shown) [Example 11]	> 2000
O=C(N[C@@H](CO)c1ccccc1)C(c1ccc(OCc2ccccc2Cl)cn1)C1CCCCCC1 (stereo partly shown) [Example 3]	71
O=C(N[C@@H](CO)c1ccccc1)C(c1ccc(OCc2ccc3ccccc3n2)s1)C1CCCCCC1 (stereo partly drawn) [Example 1, 2-Cycloheptyl-N-(2-hydroxy-1(R)-phenylethyl)-2-[5-(quinoline-2-ylmethoxy)thiophen-2-yl]acetamide]	195
Cc1ccc(CNC(=O)C(c2ccc3cc(OCc4ccc5ccccc5n4)ccc3c2)C2CCCC2)cc1 (stereo not shown) [Example 12]	> 2000
COc1cc(CNC(=O)C(c2ccc3cc(OCc4ccc5ccccc5n4)ccc3c2)C2CCCC2)ccc1O (stereo not shown) [Example 10]	> 2000

— patent publication US5747505A, “Heterocyclic aryl-, alkyl- and cycloalkylacetamides” (Bayer Aktiengesellschaft, priority 1995, dated 1998)
